Measurements as given in patent publication US20090082423A1, “SOLUBLE EPOXIDE HYDROLASE INHIBITORS” (Arete Therapeutics, Inc., priority 2007, published 2009).

Assays:
[1] = test system: soluble epoxide hydrolase (sEH); test: Fluorescent assay for mouse and human soluble epoxide hydrolase (CMNPC substrate); format: biochemical; settings: Conc 200 nM; recombinant sEH, CMNPC 5 μM, 30° C.; mouse or human enzyme not stated
Source text: Fluorescent Assay for Mouse and Human Soluble Epoxide Hydrolase
Recombinant mouse sEH (MsEH) and human sEH (HsEH) were produced in a baculovirus expression system as previously reported. Grant et al., J. Biol. Chem., 268:17628-17633 (1993); Beetham et al., Arch. Biochem. Biophys., 305:197-201 (1993). The expressed proteins were purified from cell lysate by affinity chromatography. Wixtrom et al., Anal. Biochem., 169:71-80 (1988). Protein concentration was quantified using the Pierce BCA assay using bovine serum albumin as the calibrating standard. The preparations were at least 97% pure as judged by SDS-PAGE and scanning densitometry. They contained no detectable esterase or glutathione transferase activity which can interfere with the assay. The assay was also evaluated with similar results in crude cell lysates or homogenate of tissues.
The IC50s for each inhibitor were according to the following procedure:
Cyano(2-methoxynaphthalen-6-yl)methyl (3-phenyloxiran-2-yl)methyl carbonate (CMNPC; Jones P. D. et. al.; Analytical Biochemistry 2005; 343: pp. 66-75)
Bis/Tris HCl 25 mM pH 7.0 containing 0.1 mg/mL of BSA (buffer A)
CMNPC at 0.25 mM in DMSO.
Mother solution of enzyme in buffer A (Mouse sEH at 6 μg/mL and Human sEH at 5 μg/mL).
Inhibitor dissolved in DMSO at the appropriate concentration.
In a black 96 well plate, fill all the wells with 150 μL of buffer A.
Add 2 μL of DMSO in well A2 and A3, and then add 2 μL of inhibitor solution in A1 and A4 through A12.
Add 150 μL of buffer A in row A, then mix several time and transfer 150 μL to row B. Repeat this operation up to row H. The 150 μL removed from row H go to the trash.
Add 20 μL of buffer A in column 1 and 2, then add 20 μL of enzyme solution to column 3 to 12.
Incubate the plate for 5 minutes in the plate reader at 30° C.
During incubation prepare the working solution of substrate by mixing 3.68 mL of buffer A (4×0.920 mL) with 266 μL (2×133 μL) of substrate solution).
At t=0, add 30 μL of working substrate solution with multi-channel pipette labeled “Briggs 303” and start the reading ([S]final: 5 μM).
Read with ex: 330 nm (20 nm) and em: 465 nm (20 nm) every 30 second for 10 minutes. The velocities are used to analyze and calculate the IC50s.

Row | % Inh (percent inhibition) [1] [%] | melting point [°C] | SMILES
1 | 89 | 196 to 198 | O=C(NCC1CCOCC1)NC12CC3CC(CC(C3)C1)C2 [Compound 1, 1-adamantan-1-yl-3-((tetrahydro-2H-pyran-4-yl)methyl)urea]
2 | 70 | 148 to 149 | O=C(NCC1CCOCC1)Nc1ccc(C(F)(F)F)cc1 [Compound 2, 1-((tetrahydro-2H-pyran-4-yl)methyl)-3-(4-(trifluoromethyl)phenyl)urea]
3 | 91 | 196 to 198 | O=C(Nc1ccc(C(F)(F)F)cc1)NC1CCOCC1 [Compound 3, 1-(tetrahydro-2H-pyran-4-yl)-3-(4-(trifluoromethyl)phenyl)urea]
4 | 92 | 196 to 198 | O=C(Nc1ccc(C(F)(F)F)cc1)NC1CCS(=O)(=O)CC1 [Compound 4, 1-(1,1-dioxo-tetrahydro-2H-thiopyran-4-yl)-3-(4-(trifluoromethyl)phenyl)urea]
5 | 98 | 152 to 153 | CC1(C)CC(NC(=O)Nc2ccc(C(F)(F)F)cc2)CC(C)(C)C1=O [Compound 5, 1-(3,3,5,5-tetramethyl-4-oxocyclohexyl)-3-(4-(trifluoromethyl)phenyl)urea]
6 | 100 | 234 to 238 | CC1(C)CC(NC(=O)NC23CC4CC(CC(C4)C2)C3)CC(C)(C)C1=O [Compound 6, 1-adamantan-1-yl-3-(3,3,5,5-tetramethyl-4-oxocyclohexyl)urea]
7 | 82 | 244 to 246 | O=C(NC1CCS(=O)(=O)CC1)NC12CC3CC(CC(C3)C1)C2 [Compound 7, 1-adamantan-1-yl-3-(1,1-dioxo-tetrahydro-2H-thiopyran-4-yl)urea]
8 | 90 | 239 to 242 | O=C(NC1CCOCC1)NC12CC3CC(CC(C3)C1)C2 [Compound 8, 1-adamantan-1-yl-3-(tetrahydro-2H-pyran-4-yl)urea]
